This passage reports EC50 results from US12344610B2, “APOL1 inhibitors and methods of use” (Maze Therapeutics, Inc., priority 2022, dated 2025).

This experiment has as its system human immortalized podocytes inducibly expressing APOL1 G2. Nature of the experiment: APOL1 G2 podocyte cell rescue assay (Example B4). In kind it is cell-based. The settings on record: Homo sapiens, differentiated human podocytes, doxycycline-induced APOL1 G2, CellTiter-Glo; geometric mean of at least 2 runs; † = single run. Summed up: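 Differentiated hTERT-immortalized podocytes (clone D10) with doxycycline-inducible C-terminally HiBiT-tagged APOL1 G2, 6,000 cells/well, treated with doxycycline plus 8-point 3-fold compound series (0.4% DMSO) for 95 h at 37 °C. Viability by CellTiter-Glo luminescence; EC50 as geometric mean of ≥2 runs, each in duplicate.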
On to `CC1(O)CN(c2ncc(OCCN3CCC4(CC3)C(=O)Nc3ccc(Cl)cc34)cn2)C1` [Compound 300, 5-chloro-1′-(2-{[2-(3-hydroxy-3-methylazetidin-1-yl)pyrimidin-5-yl]oxy}ethyl)-1,2-dihydrospiro[indole-3,4′-piperidin]-2-one], for which the EC50 came out at 33.3 nM.
For `O=C1Nc2ccc(Cl)cc2C12CCN(CCOc1cnc(N3CC(O)C3)nc1)CC2` [Compound 301, 5-chloro-1′-(2-{[2-(3-hydroxyazetidin-1-yl)pyrimidin-5-yl]oxy}ethyl)-1,2-dihydrospiro[indole-3,4′-piperidin]-2-one] the value was 66.9 nM.
For `CC(C)(O)c1ncc(OCCN2CCC3(CC2)C(=O)Nc2ccc(Cl)cc23)cn1` [Compound 305, 5-chloro-1′-(2-{[2-(2-hydroxypropan-2-yl)pyrimidin-5-yl]oxy}ethyl)-1,2-dihydrospiro[indole-3,4′-piperidin]-2-one] the value was 15 nM.
The value for `CC1(O)CN(c2nccc3cc(OCCN4CCC5(CC4)C(=O)Nc4ccc(Cl)cc45)cnc23)C1` [Compound 306, 5-chloro-1′-(2-{[8-(3-hydroxy-3-methylazetidin-1-yl)-1,7-naphthyridin-3-yl]oxy}ethyl)-1,2-dihydrospiro[indole-3,4′-piperidin]-2-one] was 1.94 nM.
Turning to `O=C1Nc2ccc(Cl)cc2C12CCN(CCOc1cnc3c(N4CC(O)C4)nccc3c1)CC2` [Compound 314, 5-chloro-1′-(2-{[8-(3-hydroxyazetidin-1-yl)-1,7-naphthyridin-3-yl]oxy}ethyl)-1,2-dihydrospiro[indole-3,4′-piperidin]-2-one], a half-maximal effect (EC50) was put at 4.57 nM.
